Biological target: T1, P2X7 receptor (Homo sapiens, UniProt Q99572)
T1 construct: host or cells: THP-1 monocytic cells differentiated overnight with LPS (25 ng/ml) and IFN-gamma (10 ng/ml)
T1 sequence (Q99572 1-595): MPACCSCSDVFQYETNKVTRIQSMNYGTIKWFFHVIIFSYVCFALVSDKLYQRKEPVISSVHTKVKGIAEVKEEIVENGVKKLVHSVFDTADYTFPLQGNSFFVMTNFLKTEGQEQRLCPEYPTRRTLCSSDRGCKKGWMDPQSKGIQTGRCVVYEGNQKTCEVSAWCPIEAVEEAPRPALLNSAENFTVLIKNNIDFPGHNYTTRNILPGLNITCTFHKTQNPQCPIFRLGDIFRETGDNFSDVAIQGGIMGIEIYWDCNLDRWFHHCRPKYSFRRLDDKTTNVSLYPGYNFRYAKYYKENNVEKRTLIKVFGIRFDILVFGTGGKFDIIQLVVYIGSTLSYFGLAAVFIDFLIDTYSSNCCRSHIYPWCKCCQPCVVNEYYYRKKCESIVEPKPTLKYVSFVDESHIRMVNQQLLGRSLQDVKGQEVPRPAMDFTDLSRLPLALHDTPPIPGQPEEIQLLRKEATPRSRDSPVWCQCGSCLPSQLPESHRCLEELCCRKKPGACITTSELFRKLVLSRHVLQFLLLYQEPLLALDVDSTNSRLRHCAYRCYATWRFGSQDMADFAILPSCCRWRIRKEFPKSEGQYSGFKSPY
Assay: P2X7 mediated pore formation (YO-PRO dye uptake, FLIPR)
Format: cell-based
Conditions: THP-1 cells
Text: Tissue Culture: Cells of the THP-1 monocytic cell line (American Type Culture Collection, Rockville, Md.) were maintained in the log phase of growth in RPMI medium containing high glucose and 10% fetal calf serum (Invitrogen, Carlsbad, Calif.) according to established procedures (Humphrey B D and Dubyak G R (1996), Induction of the P2z/P2X7 Nucleotide Receptor and Associated Phospholipase D Activity by Lipopolysaccharide and IFN-γ in the Human THP-1 Monocytic Cell Line. J. Immunology 157:5627-37). Fresh vials of frozen THP-1 cells were initiated for growth every eight weeks. […]
P2X7 Mediated Pore Formation. […] Accordingly, the inhibitory activity of the antagonists of the present invention was determined by their capacity to inhibit the agonist-induced pore formation using the fluorescent dye YO-PRO (MW=629) and Fluorometric Imaging Plate Reader (FLIPR, Molecular Devices, Sunnydale, Calif.). […] The intensity of the fluorescence was captured by the CCD camera every 15 seconds for the first 10 minutes of agonist exposure followed by every 20 seconds for an additional 50 minutes with the data being digitally transferred to an interfaced PC. […] The test compounds were incubated for 10 minutes with the THP-1 cells at room temperature, after which the cells were stimulated with BzATP and fluorescence measured as described above in the […] of the antagonist. […]

With benzoylbenzoic ATP [BzATP] the “EC70 value for agonist activation” value was 50 µM.

From patent US7704997B1, “Amino-tetrazole analogues and methods of use” (Abbott Laboratories, priority 2004, dated 2010)
